From paper PMC12211128, “Safety, tolerability, pharmacokinetic and pharmacodynamic effects of the muscarinic M1 positive allosteric modulator VU0467319 for Alzheimer’s disease: a single ascending-dose study in healthy participants” (Alzheimer's Research & Therapy, 2025)
Marks after values point to notes of the source that are not given here.

Tests used:
healthy participants [1] = experiment: Vital signs; type: in vivo, human
Experimental: Safety and tolerability were assessed throughout the study via treatment emergent adverse event (TEAE) monitoring, vital signs (blood pressure, pulse rate, respiration rate, oral temperature), physical examinations, 12-lead ECGs, and clinical laboratory parameters including complete blood count (CBC), coagulation, hematology, clinical chemistry assessments, and urinalysis. Safety laboratory tests were drawn at pre-dose and at 5, 24, 36 and 144-hours post-dose for 60–400 mg Cohorts; and at 24, 48, 72 and 144-hours post-dose for the 600 mg and Food Effect Cohort. […] All adverse events (AEs) were assessed by the investigator for severity and relationship to study medication or study procedures.
All AEs were coded using the Medical Dictionary for Regulatory Activities (MedDRA) version 22.0. All AEs were listed, and the emergence of TEAEs were categorized by body system affected and analyzed to determine whether they were related to treatment. […] Assessment of the grade of toxicity or relation to the study drug for each adverse event was determined by the Investigator. […] Changes in vital signs from pre-dose to 48 h post-dose were placed into 10-time bins and assessed using mixed-measures ANOVA with the time bins as the within-subjects factor and dose as the between-subjects factor. […]

healthy participants [2] = experiment: Visual oddball ERP task; type: in vivo, human; conditions: for Mean amplitude over the parietal cortex, Visual Oddball, Standard trials / Mean amplitude over the parietal cortex, Visual Oddball, Target trials: mean (SD)
Experimental: Following the cognitive battery, an electrophysiology recording was set up. Visual and auditory ERPs were recorded using a 128-channel Geodesic sensor net (EGI, Inc., Eugene, OR; [37, 38]). The electrophysiological recording was sampled at 250 Hz with filters set at 0.1–100 Hz. During data collection, all electrodes were referenced to vertex (Cz). The recording session lasted approximately 30 min.
Auditory and visual oddball tasks were performed to assess attention in auditory and visual modalities. In the auditory task, a pair of two pure tones (single formant) at 1000 and 1500 Hz were the stimuli. In the visual task, the stimuli were a pair of letters (X & O). The assignment of stimuli to standard and target conditions (70% & 30% of the trials respectively), was counterbalanced across participants. Each participant was asked to press a different button using their preferred hand upon presentation of the standard and the target stimulus. On average, auditory and visual tasks lasted 6–7 min each.
ERP processing and Analysis: Single-trial ERPs were derived by extracting a 100-ms pre-stimulus baseline and a 900 ms post-stimulus interval. The trials were screened for ocular and motor artifacts using automated procedures with standard threshold settings (NetStation 4.4, EGI, Inc) and verified using manual review. Data for electrodes characterized by consistent artifacts were replaced using the spherical spline interpolation algorithm. If more than 15 electrodes within a trial were noisy, the entire trial was discarded. Remaining artifact-free trials were averaged separately for each condition (standard vs. oddball; novel vs. repeated images), re-referenced to an average reference, and baseline corrected. For individual participant’s data to be included in the analysis, each condition average had to have a minimum of 10 artifact-free trials.
Statistical analysis focused on a priori selected electrode clusters corresponding to frontal, central, and parietal midline locations (Fz, Cz, Pz in 10–20 notation), confirmed using spatial principal components analysis. Mean amplitudes were calculated within 250–400 ms (frontal P3a), 300–500 ms (parietal P300), and 500–800 ms (parietal P600) temporal windows. These a-priori selected windows were confirmed using temporal principal components analysis.
Analyses for the auditory and visual oddball ERPs focused on the parietal (P300) and frontal (P3a) responses to standard and target stimuli. Differences in the amplitude, latency, and scalp topography of the responses were examined. […] For the incidental memory paradigm, differences in the mean amplitude of the parietal P300/P600 responses to repeated vs. novel presentations. The amplitude of the parietal P300/P600 waveform measures stimulus recognition. A larger positive amplitude for repeated compared to novel images indicates spontaneous formation of a memory trace.
Auditory and visual oddball tasks were performed to assess attention in auditory and visual modalities (Comerchero & Polich, 1999; Polich, 2007). In the auditory task, a pair of two pure tones (single formant) at 1000 and 1500 Hz were the stimuli. Tones were equated in duration (300 ms) and rise/decay times. Tones were presented at 75 dB SPL (measured at the ear) through a speaker positioned 1 meter in front of the participant. In the visual task, the stimuli were a pair of letters (X & O). All stimuli were presented in random order for 500 ms in the center of a computer monitor positioned 1 meter in front of the participant. For both auditory and visual tasks, 200 trials were presented with the inter-stimulus interval varying randomly between 1000-1300 ms to prevent habituation to stimulus onset. The assignment of stimuli to standard and target conditions (70% & 30% of the trials respectively), was counterbalanced across participants. […]

[3] = SAD study, 120mg, Post-Drug, n = 5
[4] = SAD study, 120mg, Pre-Drug, n = 5
[5] = SAD study, 240mg, Post-Drug, n = 5
[6] = VU319 120 mg, fasting, post-drug session, n = 9
[7] = VU319 120 mg, fasting, pre-drug session, n = 9
[8] = VU319 120 mg, fed, pre-drug session, n = 9

Cn1cc2c(-c3cc(F)c(CN4Cc5ncccc5C4=O)c(F)c3)cccc2n1 [VU319]
vitals measurements over the first 48 h post-dose (healthy participants [1]; SAD study): no significant dose-by-time interactions | vitals measurements over the first 48 h post-dose (healthy participants [1]; food effect study): no significant dose-by-time interactions | Visual oddball P300 amplitude, targets vs standards (healthy participants [2]; 120 mg, fasted condition): no difference | Visual oddball P300 amplitude, targets vs standards, effect size d (healthy participants [2]; 120 mg, fed, post-dose session, p = 0.061): 0.73 | Visual oddball P300 amplitude, targets vs standards, effect size d (healthy participants [2]; 120 mg, fed, pre-dose session, p = 0.039): 0.82 | Visual oddball parietal amplitude, target vs standard, post- vs pre-dose, effect size d (healthy participants [2]; 400 mg, p = 0.05): 1.28 | Visual oddball parietal amplitude, target vs standard, post- vs pre-dose effect (healthy participants [2]; 600 mg, t < 1): not found | Mean amplitude over the parietal cortex, Visual Oddball, Standard trials (healthy participants [2]; SAD study, 60 mg, Post-Drug): -0.66 (1.57) µV | Mean amplitude over the parietal cortex, Visual Oddball, Target trials (healthy participants [2]; SAD study, 60 mg, Post-Drug): 1.36 (0.91) µV | Mean amplitude over the parietal cortex, Visual Oddball, Standard trials (healthy participants [2]; SAD study, 60 mg, Pre-Drug): -0.13 (1.23) µV | Mean amplitude over the parietal cortex, Visual Oddball, Target trials (healthy participants [2]; SAD study, 60 mg, Pre-Drug): 1.19 (1.9) µV | Mean amplitude over the parietal cortex, Visual Oddball, Standard trials (healthy participants [2]; [3]): 0.01 (1.05)^# µV | Mean amplitude over the parietal cortex, Visual Oddball, Target trials (healthy participants [2]; [3]): 1.5 (1.26)^# µV | Mean amplitude over the parietal cortex, Visual Oddball, Standard trials (healthy participants [2]; [4]): 0.99 (1.12)^# µV | Mean amplitude over the parietal cortex, Visual Oddball, Target trials (healthy participants [2]; [4]): 2.71 (1.58)^# µV | Mean amplitude over the parietal cortex, Visual Oddball, Standard trials (healthy participants [2]; [5]): 1.02 (1.44)^# µV | Mean amplitude over the parietal cortex, Visual Oddball, Target trials (healthy participants [2]; [5]): 2.2 (2.28)^# µV | Mean amplitude over the parietal cortex, Visual Oddball, Standard trials (healthy participants [2]; SAD study, 240 mg, Pre-Drug): 0.32 (1.04) µV | Mean amplitude over the parietal cortex, Visual Oddball, Target trials (healthy participants [2]; SAD study, 240 mg, Pre-Drug): 1.93 (1.88) µV | Mean amplitude over the parietal cortex, Visual Oddball, Standard trials (healthy participants [2]; SAD study, 400 mg, Post-Drug): 1.48 (0.73) µV | Mean amplitude over the parietal cortex, Visual Oddball, Target trials (healthy participants [2]; SAD study, 400 mg, Post-Drug): 2.7 (1.92) µV | Mean amplitude over the parietal cortex, Visual Oddball, Standard trials (healthy participants [2]; SAD study, 400 mg, Pre-Drug): 1.04 (1.03) µV | Mean amplitude over the parietal cortex, Visual Oddball, Target trials (healthy participants [2]; SAD study, 400 mg, Pre-Drug): 1.75 (1.5) µV | Mean amplitude over the parietal cortex, Visual Oddball, Standard trials (healthy participants [2]; SAD study, 600 mg, Post-Drug): 1.47 (1.1) µV | Mean amplitude over the parietal cortex, Visual Oddball, Target trials (healthy participants [2]; SAD study, 600 mg, Post-Drug): 3.1 (2.23) µV | Mean amplitude over the parietal cortex, Visual Oddball, Standard trials (healthy participants [2]; SAD study, 600 mg, Pre-Drug): 1.46 (2.51) µV | Mean amplitude over the parietal cortex, Visual Oddball, Target trials (healthy participants [2]; SAD study, 600 mg, Pre-Drug): 3.46 (2.31) µV | Mean amplitude over the parietal cortex, Visual Oddball, Standard trials (healthy participants [2]; [6]): -0.16 (1.73) µV | Mean amplitude over the parietal cortex, Visual Oddball, Target trials (healthy participants [2]; [6]): 0.72 (3.1) µV | Mean amplitude over the parietal cortex, Visual Oddball, Standard trials (healthy participants [2]; [7]): -0.16 (1.28) µV | Mean amplitude over the parietal cortex, Visual Oddball, Target trials (healthy participants [2]; [7]): 0.71 (1.6) µV | Mean amplitude over the parietal cortex, Visual Oddball, Standard trials (healthy participants [2]; VU319 120 mg, fed, post-drug session, n = 9): 0.25 (0.62) µV | Mean amplitude over the parietal cortex, Visual Oddball, Standard trials (healthy participants [2]; [8]): -0.29 (1.17) µV | Mean amplitude over the parietal cortex, Visual Oddball, Target trials (healthy participants [2]; [8]): 0.91 (1.49) µV
